Source: publication PMC8389907 (Journal of Medicinal Chemistry, 2021)
Like-named read-outs stand apart in the source and are kept apart here.

How the values were obtained:
MCF7/ADR cells = test: MTT cell viability assay, DOX-resistant MCF7/ADR; type: cell-based, human; settings: for IC50: Homo sapiens, NCI/ADR-RES, 72 h treatment, MTT; for R.I. (resistance index): MCF7/ADR vs MCF7
Experimental: (§1) The 3-(4,5-dimethylthiazol-2-yl)-2,5-diphenyltetrazolium bromide (MTT) assay was performed on all the cell lines tested as previously described[52] with minor modifications. Briefly, according to the growth profiles previously defined for each cell line, adequate numbers of cells were plated in each well of a 96-well plate in 0.1 mL of complete culture medium. Cells were allowed to attach for 24 h before the treatment at 37 °C for 72 h with the compounds at concentrations ranging between 0.1 and 75 μM, bringing the final volume to 0.2 mL/well. Each experiment included eight replications per concentration tested; control samples were run with 0.2% DMSO. At the end of the incubation period, MTT (0.05 mL of a 2 mg/mL stock solution in PBS) was added to each well for 3 h at 37 °C. Cell supernatants were then carefully removed, the blue formazan crystals formed through MTT reduction by metabolically active cells were dissolved in 0.120 mL of DMSO, and the corresponding optical densities were measured at 570 nm using a Universal Microplate Reader EL800 (Bio-Tek, Winooski, VT).
(§2) IC50 values were estimated from the resulting concentration–response curves by nonlinear regression analysis using GraphPad Prism software, v. 5.0 (GraphPad, San Diego, CA, USA). Differences between IC50 values were evaluated statistically by analysis of variance with a Bonferroni post-test for multiple comparisons.

MDA-MB231 cells = test: MTT cell viability assay, MDA-MB231; type: cell-based; settings: Homo sapiens, MDA-MB-231
Experimental: (§3) The cell lines DU145 (HTB-81, human prostate carcinoma), PC3 (CRL-1435, human prostate adenocarcinoma), MCF7 (HTB-22, human breast adenocarcinoma), MDA-MB231 (HTB-26, human breast adenocarcinoma), and HCT116 (CCL-247, human colorectal carcinoma) were obtained from ATCC (American Type Culture Collection, Manassas, VA, USA); WH1 human fibroblasts were kindly provided by Dr. Guven.[51] All the cells were maintained under standard culture conditions (37 °C; 5% CO2) in the RMPI1640 medium (PC3, MCF7, and MDA-MB231 cells), while DU145 and HCT116 cells were in the DMEM and Iscove’s medium (WH1 cells) supplemented with 10% fetal calf serum, 1% glutamine, and 1% antibiotics mixture; for HCT116 and DU145 cells, 1% sodium pyruvate and 1% non-essential amino acids were also added to the culture medium.
as §1, §2

PC3 cells = test: MTT cell viability assay, PC3; type: cell-based; settings: Homo sapiens, PC-3
Experimental: as §3, §1, §2

HCT116 cells = test: MTT cell viability assay, HCT116; type: cell-based; settings: Homo sapiens, HCT-116; supplement csv, unit inferred; read-out: HCT116 IC50
Experimental: as §3, §1, §2

HBL100 cells = test: MTT cell viability assay, non-tumorigenic HBL100; type: cell-based; settings: Homo sapiens, HBL-100, 72 h treatment
Experimental: as §1, §2

WH1 human fibroblasts = test: MTT cell viability assay, WH1 fibroblasts; type: cell-based; settings: Fibroblast, 72 h treatment
Experimental: as §3, §1, §2

DU145 cells = test: MTT cell viability assay, DU145; type: cell-based; settings: Homo sapiens, DU-145
Experimental: as §3, §1, §2

MCF7 cells = test: MTT cell viability assay, MCF7; type: cell-based; settings: Homo sapiens
Experimental: as §3, §1, §2

[1] = supplement csv, unit inferred, read-out: MDA-MB231 IC50
[2] = supplement csv, unit inferred, read-out: PC3 IC50
[3] = supplement csv, unit inferred, read-out: DU145 IC50
[4] = 72 h treatment, MTT, read-out: IC50 MCF7
[5] = 72 h treatment, MTT, read-out: IC50 DU145

COc1cccc2c1C(=O)c1c(O)c3c(c(O)c1C2=O)C[C@@](O)(C(=O)CO)C[C@@H]3O[C@H]1C[C@H](N)[C@H](O)[C@H](C)O1 [DOX, doxorubicin, reference compound]
IC50 (MCF7/ADR cells): 66.9 ± 2.56 µM

O=C(O)c1cn(C2CC2)c2cc(N3CCN(c4ccc([N+](=O)[O-])c(C(F)(F)F)c4)CC3)c(F)cc2c1=O [Compound 1a, 1-Cyclopropyl-6-fluoro-7-(4-(4-nitro-3-(trifluoromethyl)phenyl)piperazin-1-yl)-4-oxo-1,4-dihydroquinoline-3-carboxylic Acid]
IC50 (MDA-MB231 cells; [1]): 8.06 ± 1.05 µM | IC50 (PC3 cells; [2]): 6.45 ± 0.19 µM | IC50 (HCT116 cells): 9.67 ± 0.36 µM | IC50 (HBL100 cells): 7.79 ± 0.66 µM | IC50 (WH1 human fibroblasts): 9.17 ± 0.6 µM | IC50 (DU145 cells; [3]): 7.78 ± 1.52 µM | IC50 (MCF7 cells; [4]): 8.8 ± 1.59 µM | melting point: 296 to 298 °C | IC50 (MCF7/ADR cells): 8.72 ± 1.25 µM | R.I. (resistance index) (MCF7/ADR cells): 1.0

CCn1cc(C(=O)OC)c(=O)c2cc(F)c(N3CCN(CCCNc4ccc([N+](=O)[O-])c(C(F)(F)F)c4)CC3)cc21 [Compound 6d, Methyl 1-Ethyl-6-fluoro-7-(4-(3-((4-nitro-3-(trifluoromethyl)phenyl)amino)propyl)piperazin-1-yl)-4-oxo-1,4-dihydroquinoline-3-carboxylate]
IC50 (MDA-MB231 cells; [1]): 8.89 ± 1.65 µM | IC50 (PC3 cells; [2]): 4.1 ± 0.61 µM | IC50 (HCT116 cells): 11.7 ± 2.1 µM | IC50 (HBL100 cells): 3.68 ± 0.2 µM | IC50 (WH1 human fibroblasts): 9.67 ± 1.65 µM | IC50 (DU145 cells; [3]): 5.49 ± 0.97 µM | IC50 (MCF7 cells; [4]): 10.5 ± 1.2 µM | melting point: 216 to 218 °C | IC50 (MCF7/ADR cells): 28 ± 1.1 µM | R.I. (resistance index) (MCF7/ADR cells): 2.7

COC(=O)c1cn(C2CC2)c2cc(N3CCN(c4ccc([N+](=O)[O-])c(C(F)(F)F)c4)CC3)c(F)cc2c1=O [Compound 3a, Methyl 1-Cyclopropyl-6-fluoro-7-(4-(4-nitro-3-(trifluoromethyl)phenyl)piperazin-1-yl)-4-oxo-1,4-dihydroquinoline-3-carboxylate]
IC50 (MDA-MB231 cells; [1]): 10.7 ± 1.9 µM | IC50 (PC3 cells; [2]): 15.9 ± 0.5 µM | IC50 (HCT116 cells): 6.93 ± 1.53 µM | IC50 (HBL100 cells): 10.6 ± 2.4 µM | IC50 (WH1 human fibroblasts): 8.38 ± 1.2 µM | IC50 (DU145 cells; [3]): 5.67 ± 0.06 µM | IC50 (MCF7 cells; [4]): 15.5 ± 1.2 µM | melting point: 265 to 267 °C | IC50 (MCF7/ADR cells): 19.6 ± 3.2 µM | R.I. (resistance index) (MCF7/ADR cells): 1.3

CCn1cc(C(=O)OC)c(=O)c2cc(F)c(N3CCN(c4ccc([N+](=O)[O-])c(C(F)(F)F)c4)CC3)cc21 [Compound 3b, Methyl 1-Ethyl-6-fluoro-7-(4-(4-nitro-3-(trifluoromethyl)phenyl)piperazin-1-yl)-4-oxo-1,4-dihydroquinoline-3-carboxylate]
IC50 (MDA-MB231 cells; [1]): 10.2 ± 3.1 µM | IC50 (PC3 cells; [2]): 15.3 ± 1.2 µM | IC50 (HCT116 cells): 9.73 ± 2.25 µM | IC50 (HBL100 cells): 12 ± 1.7 µM | IC50 (WH1 human fibroblasts): 9 ± 1.91 µM | IC50 (DU145 cells; [3]): 6.06 ± 0.51 µM | IC50 (MCF7 cells; [4]): 11.7 ± 1.4 µM | melting point: 236 to 238 °C | IC50 (MCF7/ADR cells): 15 ± 2.1 µM | R.I. (resistance index) (MCF7/ADR cells): 1.3

O=C(O)c1cn(C2CC2)c2cc(N3CCN(CCNc4ccc([N+](=O)[O-])c(C(F)(F)F)c4)CC3)c(F)cc2c1=O [Compound 7a, 1-Cyclopropyl-6-fluoro-7-(4-(2-((4-nitro-3-(trifluoromethyl)phenyl)amino)ethyl)piperazin-1-yl)-4-oxo-1,4-dihydroquinoline-3-carboxylic Acid]
IC50 (MDA-MB231 cells; 72 h treatment, MTT, read-out: IC50 MDA-MB231): < 2.5 µM | IC50 (MDA-MB231 cells; [1]): 2.24 ± 0.18 µM | IC50 (PC3 cells; 72 h treatment, MTT, read-out: IC50 PC3): < 3 µM | IC50 (PC3 cells; [2]): 2.48 ± 0.42 µM | IC50 (HCT116 cells): 5.29 ± 0.72 µM | IC50 (HBL100 cells): 9.14 ± 0.44 µM | IC50 (WH1 human fibroblasts): 5.7 ± 0.92 µM | IC50 (DU145 cells; [5]): < 3 µM | IC50 (DU145 cells; [3]): 2.56 ± 0.21 µM | IC50 (MCF7 cells; [4]): 3.12 ± 0.62 µM | IC50 (MCF7/ADR cells): 14.7 ± 4.2 µM | R.I. (resistance index) (MCF7/ADR cells): 4.7

CCn1cc(C(=O)O)c(=O)c2cc(F)c(N3CCN(CCCNc4ccc([N+](=O)[O-])c(C(F)(F)F)c4)CC3)cc21 [Compound 7d, 1-Ethyl-6-fluoro-7-(4-(3-((4-nitro-3-(trifluoromethyl)phenyl)amino)propyl)piperazin-1-yl)-4-oxo-1,4-dihydroquinoline-3-carboxylic Acid]
IC50 (MDA-MB231 cells; [1]): 3.64 ± 0.63 µM | IC50 (PC3 cells; [2]): 4.83 ± 1.15 µM | IC50 (HCT116 cells): 5.36 ± 0.65 µM | IC50 (HBL100 cells): 10.4 ± 0.9 µM | IC50 (WH1 human fibroblasts): 8.94 ± 0.91 µM | IC50 (DU145 cells; [5]): 1.56 µM | IC50 (MCF7 cells; [4]): 5.83 ± 0.82 µM | IC50 (MCF7/ADR cells): 20 ± 0.3 µM | R.I. (resistance index) (MCF7/ADR cells): 3.4

COC(=O)c1cn(C2CC2)c2cc(N3CCN(CCNc4ccc([N+](=O)[O-])c(C(F)(F)F)c4)CC3)c(F)cc2c1=O [Compound 6a, Methyl 1-Cyclopropyl-6-fluoro-7-(4-(2-((4-nitro-3-(trifluoromethyl)phenyl)amino)ethyl)piperazin-1-yl)-4-oxo-1,4-dihydroquinoline-3-carboxylate]
IC50 (MDA-MB231 cells; [1]): 16.1 ± 2.1 µM | IC50 (PC3 cells; [2]): 6.72 ± 0.35 µM | IC50 (HCT116 cells): 15.7 ± 2 µM | IC50 (HBL100 cells): 9.76 ± 0.9 µM | IC50 (WH1 human fibroblasts): 10.5 ± 2.5 µM | IC50 (DU145 cells; [3]): 4.8 ± 0.96 µM | IC50 (MCF7 cells; [4]): 16.8 ± 2.4 µM | melting point: 231 to 233 °C | IC50 (MCF7/ADR cells): 15.1 ± 2.3 µM | R.I. (resistance index) (MCF7/ADR cells): 0.9

CCn1cc(C(=O)OC)c(=O)c2cc(F)c(N3CCN(CCNc4ccc([N+](=O)[O-])c(C(F)(F)F)c4)CC3)cc21 [Compound 6c, Methyl 1-Ethyl-6-fluoro-7-(4-(2-((4-nitro-3-(trifluoromethyl)phenyl)amino)ethyl)piperazin-1-yl)-4-oxo-1,4-dihydroquinoline-3-carboxylate]
IC50 (MDA-MB231 cells; [1]): 11.9 ± 1 µM | IC50 (PC3 cells; [2]): 9.26 ± 1.29 µM | IC50 (HCT116 cells): 12.4 ± 2.9 µM | IC50 (HBL100 cells): 10.8 ± 0.6 µM | IC50 (WH1 human fibroblasts): 10.6 ± 1.9 µM | IC50 (DU145 cells; [3]): 4.77 ± 0.99 µM | IC50 (MCF7 cells; [4]): 15.04 ± 0.1 µM | melting point: 245 to 247 °C | IC50 (MCF7/ADR cells): 17.2 ± 1 µM | R.I. (resistance index) (MCF7/ADR cells): 1.1

CCn1cc(C(=O)O)c(=O)c2cc(F)c(N3CCN(c4ccc([N+](=O)[O-])c(C(F)(F)F)c4)CC3)cc21 [Compound 1b, 1-Ethyl-6-fluoro-7-(4-(4-nitro-3-(trifluoromethyl)phenyl)piperazin-1-yl)-4-oxo-1,4-dihydroquinoline-3-carboxylic Acid]
IC50 (MDA-MB231 cells; [1]): 6.93 ± 0.85 µM | IC50 (PC3 cells; [2]): 3.07 ± 0.64 µM | IC50 (HCT116 cells): 10.4 ± 1.5 µM | IC50 (HBL100 cells): 9.26 ± 1.79 µM | IC50 (WH1 human fibroblasts): 5.35 ± 1.14 µM | IC50 (DU145 cells; [3]): 2.85 ± 0.01 µM | IC50 (MCF7 cells; supplement csv, unit inferred, read-out: MCF7 IC50): 5.24 ± 0.7 µM | melting point: 310 to 312 °C | IC50 (MCF7/ADR cells): 5.63 µM | R.I. (resistance index) (MCF7/ADR cells): 1.1

COC(=O)c1cn(C2CC2)c2cc(N3CCN(CCCNc4ccc([N+](=O)[O-])c(C(F)(F)F)c4)CC3)c(F)cc2c1=O [Compound 6b, Methyl 1-Cyclopropyl-6-fluoro-7-(4-(3-((4-nitro-3-(trifluoromethyl)phenyl)amino)propyl)piperazin-1-yl)-4-oxo-1,4-dihydroquinoline-3-carboxylate]
IC50 (MDA-MB231 cells; [1]): 3.76 ± 0.94 µM | IC50 (PC3 cells; [2]): 3.17 ± 0.47 µM | IC50 (HCT116 cells): 5.21 ± 0.73 µM | IC50 (HBL100 cells): 12.2 ± 2 µM | IC50 (WH1 human fibroblasts): 13.2 ± 3.4 µM | IC50 (DU145 cells; [3]): 14 ± 1.4 µM | IC50 (MCF7 cells; [4]): 12.1 ± 1.1 µM | melting point: 202 to 204 °C | IC50 (MCF7/ADR cells): 18.76 ± 0.1 µM | R.I. (resistance index) (MCF7/ADR cells): 1.5
